target: recombinant SARS-CoV-2 M^pro (Severe acute respiratory syndrome coronavirus 2 (2019-nCoV) (SARS-CoV-2), UniProt P0DTD1); test: Inhibition of SARS-CoV-2 M^pro enzyme activity (fluorescent substrate assay); assay type: biochemical; conditions: inhibition of SARS-CoV-2 M^pro enzyme activity; values given in μM; read-out: IC50

Compound | IC50 [µM]
Cc1cccc(CNC(=O)C(=O)[C@@H](Cc2ccccc2)NC(=O)[C@@H](C)OCc2ccccc2)n1 [Compound 28] | > 5
C[C@@H](OCc1ccccc1)C(=O)N[C@H](Cc1ccccc1)C(=O)C(=O)NCc1ncccn1 [Compound 29] | > 5
C[C@@H](OCc1ccccc1)C(=O)N[C@H](Cc1ccccc1)C(=O)C(=O)NCc1ccncn1 [Compound 30] | > 5
C[C@@H](OCc1ccccc1)C(=O)N[C@H](Cc1ccccc1)C(=O)C(=O)N[C@H](C)c1ccccn1 [Compound 31] | > 5
C[C@@H](OCc1ccccc1)C(=O)N[C@H](Cc1ccccc1)C(=O)C(=O)NC(c1ccccc1)c1ccccn1 (stereo partly drawn) [Compound 32] | > 5
C[C@@H](OCc1ccccc1)C(=O)N[C@H](Cc1ccccc1)C(=O)C(=O)NCc1ncccc1Cl [Compound 34] | > 5
COc1cccnc1CNC(=O)C(=O)[C@@H](Cc1ccccc1)NC(=O)[C@@H](C)OCc1ccccc1 [Compound 39] | > 5
C[C@@H](OCc1ccccc1)C(=O)N[C@H](Cc1ccccc1)C(=O)C(=O)N(C)Cc1ccccn1 [Compound 41] | > 2.5

same assay, conditions: inhibition of SARS-CoV-2 M^pro enzyme activity; values in nM; read-out: IC50

Compound | IC50 [µM]
C[C@@H](OCc1ccccc1)C(=O)N[C@H](Cc1ccccc1)C(=O)C(=O)NCc1ccccn1 [Compound 1, (R)-3-((R)-2-(benzyloxy)propionamido)-2-oxo-4-phenyl-N-(pyridin-2-ylmethyl)butyramide] | 0.0146 ± 0.0013
C[C@@H](OCc1cc(F)cc(F)c1)C(=O)N[C@H](Cc1ccccc1)C(=O)C(=O)NCc1ccccn1 [Compound 2] | 0.0176 ± 0.0004
C[C@@H](OCc1c(F)cccc1F)C(=O)N[C@H](Cc1ccccc1)C(=O)C(=O)NCc1ccccn1 [Compound 3] | 0.411 ± 0.0282
C[C@@H](OCc1ccc(OC(F)(F)F)cc1)C(=O)N[C@H](Cc1ccccc1)C(=O)C(=O)NCc1ccccn1 [Compound 4] | 0.0204 ± 0.0018
C[C@@H](OCc1cccc(OC(F)(F)F)c1)C(=O)N[C@H](Cc1ccccc1)C(=O)C(=O)NCc1ccccn1 [Compound 5] | 0.0154 ± 0.0007
C[C@@H](OCc1ccccc1F)C(=O)N[C@H](Cc1ccccc1)C(=O)C(=O)NCc1ccccn1 [Compound 6] | 0.0483 ± 0.0012
C[C@@H](OCc1cccc(F)c1)C(=O)N[C@H](Cc1ccccc1)C(=O)C(=O)NCc1ccccn1 [Compound 7] | 0.0285 ± 0.0009
C[C@@H](OCc1ccc(F)cc1)C(=O)N[C@H](Cc1ccccc1)C(=O)C(=O)NCc1ccccn1 [Compound 9] | 0.0121 ± 0.0025
C[C@H](OCc1ccccc1)C(=O)N[C@H](Cc1ccccc1)C(=O)C(=O)NCc1ccccn1 [Compound 10] | 0.113 ± 0.0321
C[C@@H](OCc1ccc(Cl)c(Cl)c1)C(=O)N[C@H](Cc1ccccc1)C(=O)C(=O)NCc1ccccn1 [Compound 12] | 0.0123 ± 0.0008
C[C@@H](OCc1ccc(Cl)cc1)C(=O)N[C@H](Cc1ccccc1)C(=O)C(=O)NCc1ccccn1 [Compound 13] | 0.0143 ± 0.0004
Cc1ccc(CO[C@H](C)C(=O)N[C@H](Cc2ccccc2)C(=O)C(=O)NCc2ccccn2)cc1 [Compound 14] | 0.0193 ± 0.0028
C[C@@H](OCc1cc(F)cc(Cl)c1)C(=O)N[C@H](Cc1ccccc1)C(=O)C(=O)NCc1ccccn1 [Compound 15] | 0.0098 ± 0.0001
COc1ccc(CO[C@H](C)C(=O)N[C@H](Cc2ccccc2)C(=O)C(=O)NCc2ccccn2)cc1F [Compound 16] | 0.0189 ± 0.0017
CC(C)(OCc1ccc(OC(F)(F)F)cc1)C(=O)N[C@H](Cc1ccccc1)C(=O)C(=O)NCc1ccccn1 [Compound 17] | 0.0198 ± 0.0002
CC(C)(OCc1ccc(Cl)cc1)C(=O)N[C@H](Cc1ccccc1)C(=O)C(=O)NCc1ccccn1 [Compound 18] | 0.0137 ± 0.002
CC(C)(OCc1cc(F)cc(Cl)c1)C(=O)N[C@H](Cc1ccccc1)C(=O)C(=O)NCc1ccccn1 [Compound 19] | 0.0452 ± 0.0012
CC(C)(OCc1ccc(F)c(F)c1)C(=O)N[C@H](Cc1ccccc1)C(=O)C(=O)NCc1ccccn1 [Compound 20] | 0.0152 ± 0.0002
COc1ccc(COC(C)(C)C(=O)N[C@H](Cc2ccccc2)C(=O)C(=O)NCc2ccccn2)cc1F [Compound 21] | 0.0269 ± 0.0039
CC(C)(OCc1ccc(F)cc1)C(=O)N[C@H](Cc1ccccc1)C(=O)C(=O)NCc1ccccn1 [Compound 22] | 0.0186 ± 0.0017

Compound | IC50 [µM]
O=C(NCc1ccccn1)C(=O)[C@@H](Cc1ccccc1)NC(=O)C1(OCc2ccc(Cl)cc2)CC1 [Compound 25] | 0.0249 ± 0.0003
CC(C)[C@@H](OCc1ccc(F)cc1)C(=O)N[C@H](Cc1ccccc1)C(=O)C(=O)NCc1ccccn1 [Compound 26] | 0.0139 ± 0.0002
C[C@@H](OCc1ccccc1)C(=O)N[C@H](Cc1ccccc1)C(=O)C(=O)NCc1cnccn1 [Compound 27] | 0.8858 ± 0.0002
C[C@@H](OCc1ccccc1)C(=O)N[C@H](Cc1ccccc1)C(=O)C(=O)NCc1ccc(Cl)cn1 [Compound 36] | 0.0309 ± 0.0002
C[C@@H](OCc1ccccc1)C(=O)N[C@H](Cc1ccccc1)C(=O)C(=O)NCc1ccc(C(F)(F)F)cn1 [Compound 38] | 0.7963 ± 0.0011
C[C@@H](OCc1ccc(F)cc1)C(=O)N[C@H](Cc1ccccc1)C(=O)C(=O)NCc1ccc(Cl)cn1 [Compound 42] | 0.0176 ± 0.0004
CC(C)(OCc1ccc(Cl)cc1)C(=O)N[C@H](Cc1ccccc1)C(=O)C(=O)NCc1ccc(Cl)cn1 [Compound 43] | 0.0202 ± 0.0025
C[C@@H](OCc1ccc(Cl)c(Cl)c1)C(=O)N[C@H](Cc1ccccc1)C(=O)C(=O)NCc1ccc(Cl)cn1 [Compound 44] | 0.0217 ± 0.0021
C[C@@H](OCc1ccc(Cl)cc1)C(=O)N[C@H](Cc1ccccc1)C(=O)C(=O)NCc1ccc(Cl)cn1 [Compound 45] | 0.0147 ± 0.001
C[C@@H](OCc1cc(F)cc(Cl)c1)C(=O)N[C@H](Cc1ccccc1)C(=O)C(=O)NCc1ccc(Cl)cn1 [Compound 46] | 0.0133 ± 0.0001
C[C@@H](OCc1cccc(OC(F)(F)F)c1)C(=O)N[C@H](Cc1ccccc1)C(=O)C(=O)NCc1ccc(Cl)cn1 [Compound 47] | 0.0141 ± 0.0001
CC[C@@H](OCc1ccc(F)cc1)C(=O)N[C@H](Cc1ccccc1)C(=O)C(=O)NCc1ccc(Cl)cn1 [Compound 48] | 0.0309 ± 0.0003
CC(C)[C@@H](OCc1ccc(F)cc1)C(=O)N[C@H](Cc1ccccc1)C(=O)C(=O)NCc1ccc(Cl)cn1 [Compound 49] | 0.0147 ± 0.0004
C[C@@H](OCc1ccc(F)cc1)C(=O)N[C@H](Cc1ccc2ccccc2c1)C(=O)C(=O)NCc1ccc(Cl)cn1 [Compound 53] | 0.1878 ± 0.0007
O=C(COc1ccc(F)cc1)N[C@H](Cc1ccccc1)C(=O)C(=O)NCc1ccccn1 [Compound 54] | 0.2984 ± 0.0029
COc1ccc(OC(C)C(=O)N[C@H](Cc2ccccc2)C(=O)C(=O)NCc2ccccn2)cc1 (stereo partly drawn) [Compound 57] | 0.351 ± 0.0068
CN(OCc1ccccc1)C(=O)N[C@H](Cc1ccccc1)C(=O)C(=O)NCc1ccccn1 [Compound 58, (R)-3-(3-(benzyloxy)-3-methylureido)-2-oxo-4-phenyl-N-(pyridin-2-ylmethyl)butyramide] | 0.1009 ± 0.0001
C[C@@H](NC(=O)c1ccc(F)cc1)C(=O)N[C@H](Cc1ccccc1)C(=O)C(=O)NCc1ccc(Cl)cn1 [Compound 59] | 0.0266 ± 0.0018
C[C@@H](NC(=O)c1cc(F)cc(Cl)c1)C(=O)N[C@H](Cc1ccccc1)C(=O)C(=O)NCc1ccc(Cl)cn1 [Compound 60] | 0.0249 ± 0.0001
C[C@@H](NC(=O)COc1ccccc1)C(=O)N[C@H](Cc1ccccc1)C(=O)C(=O)NCc1ccccn1 [Compound 61] | 0.0118 ± 0.0001

Compound | IC50 [µM]
C[C@@H](NC(=O)Cc1cc2ccccc2o1)C(=O)N[C@H](Cc1ccccc1)C(=O)C(=O)NCc1ccccn1 [Compound 62] | 0.0278 ± 0.0009
COc1ccc(CCCC(=O)N[C@H](C)C(=O)N[C@H](Cc2ccccc2)C(=O)C(=O)NCc2ccccn2)cc1 [Compound 63] | 0.0196 ± 0.0003
C[C@@H](NC(=O)Cc1cc(C(C)(C)C)nn1-c1ccccc1)C(=O)N[C@H](Cc1ccccc1)C(=O)C(=O)NCc1ccccn1 [Compound 64] | 0.0161 ± 0.0002
C[C@@H](NC(=O)C(C#N)Cc1ccccc1)C(=O)N[C@H](Cc1ccccc1)C(=O)C(=O)NCc1ccccn1 (stereo partly drawn) [Compound 65] | 0.0212 ± 0.0008
C[C@@H](NC(=O)CCc1ccccc1)C(=O)N[C@H](Cc1ccccc1)C(=O)C(=O)NCc1ccccn1 [Compound 66] | 0.0117 ± 0.0001
COc1ccc(CCC(=O)N[C@H](C)C(=O)N[C@H](Cc2ccccc2)C(=O)C(=O)NCc2ccccn2)cc1 [Compound 67] | 0.0173 ± 0.0016
CC(C)c1ccc(OCC(=O)N[C@H](C)C(=O)N[C@H](Cc2ccccc2)C(=O)C(=O)NCc2ccccn2)cc1 [Compound 68] | 0.0124 ± 0.0011
C[C@@H](NC(=O)COc1ccc(OC(F)(F)F)cc1)C(=O)N[C@H](Cc1ccccc1)C(=O)C(=O)NCc1ccccn1 [Compound 69] | 0.0177 ± 0.0015
C[C@@H](NC(=O)COc1ccccc1F)C(=O)N[C@H](Cc1ccccc1)C(=O)C(=O)NCc1ccccn1 [Compound 70] | 0.0229 ± 0.0003
C[C@@H](NC(=O)COc1ccc(Cl)c(Cl)c1)C(=O)N[C@H](Cc1ccccc1)C(=O)C(=O)NCc1ccccn1 [Compound 71] | 0.0109 ± 0.0005
C[C@@H](NC(=O)c1cc2ccccc2o1)C(=O)N[C@H](Cc1ccccc1)C(=O)C(=O)NCc1ccccn1 [Compound 72] | 0.0277 ± 0.0041
C[C@@H](NC(=O)C(C)(C)c1ccccc1)C(=O)N[C@H](Cc1ccccc1)C(=O)C(=O)NCc1ccccn1 [Compound 73] | 0.0258 ± 0.0005
C[C@@H](NC(=O)C1(c2ccccc2)CC1)C(=O)N[C@H](Cc1ccccc1)C(=O)C(=O)NCc1ccccn1 [Compound 74] | 0.0233 ± 0.0004
C[C@@H](NC(=O)Cc1ccc(F)cc1)C(=O)N[C@H](Cc1ccccc1)C(=O)C(=O)NCc1ccccn1 [Compound 75] | 0.0193 ± 0.0007
C[C@@H](NC(=O)Cc1ccc(Cl)cc1)C(=O)N[C@H](Cc1ccccc1)C(=O)C(=O)NCc1ccccn1 [Compound 76] | 0.023 ± 0.0011
COc1ccc(CC(=O)N[C@H](C)C(=O)N[C@H](Cc2ccccc2)C(=O)C(=O)NCc2ccccn2)cc1 [Compound 77] | 0.0241
C[C@@H](NC(=O)Cc1ccc(C(F)(F)F)cc1)C(=O)N[C@H](Cc1ccccc1)C(=O)C(=O)NCc1ccccn1 [Compound 78] | 0.0532 ± 0.0005
C[C@@H](NC(=O)Cc1cc(F)cc(F)c1)C(=O)N[C@H](Cc1ccccc1)C(=O)C(=O)NCc1ccccn1 [Compound 79] | 0.0109 ± 0.0001

— patent US20250064789A1, “KETOAMIDE DERIVATIVES AND PHARMACEUTICAL USES THEREOF” (priority 2022, published 2025)
